{"source": "patent US8187573B2", "about": "“In vivo detection of apoptosis” (priority 2005, dated 2012)", "key": {"[1]": {"test_system": "Spleen, Liver, Thymus, and CNS tissues", "assay": "In vivo detection of morphine-mediated apoptosis: apoptosis positive cell counts in tissue sections after IV FAM-VAD-FMK", "conditions": "bone marrow and liver tissues (conclusion)", "description": "Spleen, Liver, Thymus, and CNS tissues were isolated from different treatment groups, frozen and mounted on glass slides. The various cell types were adjusted to 1×10^6 cells/mL and cytospun on a glass slide for analysis by fluorescence microscopy. Sections were photographed and analyzed by MetaMorph analysis program for apoptosis positive cell counts. Counts were analyzed by statistics software.\nSpleen, Liver, Thymus, and CNS tissues were isolated from different treatment groups, frozen and mounted on glass slides. Sections were photographed and analyzed by MetaMorph analysis program for apoptosis positive cell counts. Counts were analyzed by statistics software."}, "SCK mammary tumors [2]": {"test_system": "SCK mammary tumors", "assay": "SCK mammary tumor window chamber model, in vivo apoptosis imaging with FAM-VAD-FMK (488 nm, FITC filter)", "parameters": "species or system A/J mice", "conditions": "8.0 mg/kg ATO, 8 μg FAM-VAD-FMK IV, 30 min circulation", "procedure": "(§1) Using a mouse window chamber model, SCK mammary tumors were evaluated for levels of apoptosis induction in tumors following irradiation treatment with arsenic trioxide (ATO) and heat. A window chamber, used for viewing tumors, was placed over a fold of skin in A/J mice. 2×10^5 SCK mammary carcinoma cells were injected into the skin fold. The tumors were allowed to grow for 7 to 9 days. In the test mice, tumors were irradiated with 20 Gy, 8 mg/kg ATO and 2 hours later the tumors were heated at 41.5° C. for 60 minutes. Control mice were not treated with irradiation or heat and a placebo was injected instead of ATO.\n(§2) After allowing the tumors to grow 7 days, the test mice were first irradiated with 20 Gy. This was immediately followed by an intraperitoneal (I.P.) injection of ATO. The ATO was dissolved in water and injected in a solution of PBS with 5% w/v of dextrose at a concentration of 8 mg/kg. After 2 hours the tumors were heated at 41.5° C. for 60 minutes. Control mice received an I.P. injection of PBS with 5% dextrose.\nApoptosis was detected by injecting the in vivo apoptosis detection reagent FAM-VAD-FMK into the tail vein of control and test mice. […]\nControl mice were given FAM-VAD-FMK injections following placebo injections. […] Test mice that received ATO treatment were given FAM-VAD-FMK injections at 3 hours and 24 hours after ATO treatment, and apoptosis was evaluated as before. […]"}, "SCK mammary tumors [3]": {"test_system": "SCK mammary tumors", "assay": "SCK mammary tumor window chamber model, bright-field imaging of hemorrhaging", "assay_type": "in vivo, A/J mice", "conditions": "8.0 mg/kg ATO", "procedure": "as §1, §2\nPrior to treatment, tumors were examined in control mice and designated test mice. Low magnification bright-field image composite photographs of SCK mammary tumors taken through a window chamber reveal a low level of hemorrhaging in all tumors (FIG. 1). […]"}, "SCK tumor cells": {"test_system": "SCK tumor cells", "assay": "Flow cytometry of cells from SCK tumors after in vivo FAM-VAD-FMK labelling", "parameters": "species or system mouse", "conditions": "8.0 mg/kg ATO", "procedure": "In another set of mice, the tumors were allowed to grow for 7 days. Control mice received placebo injections as before and test mice received ATO injections as before. After 24 hours all mice received I.V. injections of FAM-VAD-FMK as before. The in vivo apoptosis detection and imaging reagent was allowed to circulate through each mouse for 30 minutes. After imaging tumor-associated apoptosis in vivo, tumor tissue was collected from the window chamber by scraping the tumor out of the chamber into a trypsin solution, stirring for 30 minutes with 10 μg/ml DNase and 5 μg/ml collagenase, filtering the suspension using a […] cell strainer. Flow cytometry was then performed using a FACS Caliber flow cytometer (Becton Dickinson Immunocytometry System, San Jose, Calif.) for the analysis of apoptosis in the cell population obtained from the window chamber. All data was acquired with an event acquisition set for 10,000 events. Data was analyzed using CellQuest Pro cytometer software."}, "[4]": {"test_system": "FSaII murine fibrosarcoma tumors", "assay": "Longitudinal apoptosis imaging of FSaII tumor in dorsal skin flap chamber (DSFC) with FAM-VAD-FMK", "assay_type": "in vivo, nu/nu mice", "procedure": "A longitudinal study was performed in nu/nu mice to assess the efficacy of arsenic trioxide (ATO) on FSaII murine fibrosarcoma tumors before and after ATO treatment through a window chamber.\nDorsal skin flap chambers (DSFC) were surgically implanted into the backs of nu/nu mice as follows. Entire implantation procedure was conducted within a laminar flow hood to preserve a sterile field. Skin was washed twice with betadine and allowed to dry. One sterilized chamber piece containing a round window (9 mm) was placed on one side of the dorsal skin fold. Holes for three connecting screws were made through the skin fold connecting with another chamber piece with a similar window. The assembly was then tightened together with screws and nuts through the chamber piece spacers. A circle of cutaneous tissue and fascia was carefully cut away from the skin fold inside the DSFC window, exposing the blood vessels of the subcutaneous tissue adjacent to the striated muscles of the opposing skin fold. Antibiotic ointment (bacitracin zinc/polymyxin B sulfate/neomycin sulfate) was used on the edges of the wound inside the DSFC window. A glass window was placed in the chamber to cover the exposed tissue and secured with a snap C-ring. The surgical wound procedure was then repeated in the opposite DSFC window so that a very thin, transparent layer of fascia and vessels remained visible through both windows (created to facilitate microscope light transmission through the tissue). Finally, the chamber was sutured to the skin.\nAfter surgery, the animals were housed in barrier cages inside a humidified incubator maintained at 32° C. with unrestricted access to food and water. To minimize risk of infection, all mice were given amoxicillin in their drinking water (250 mg per 5 mL water) after DSFC implantation and throughout the experiment.\nTumor cells were implanted into one side of the chamber by temporary removal of the C-ring and glass cover slip. […]"}}, "note": "“Also recorded” adds a separate entry of the source.", "data": [{"compound": "CN1CC[C@]23c4c5ccc(O)c4O[C@H]2[C@@H](O)C=C[C@H]3[C@H]1C5", "note": "[Morphine, morphine]", "values": [{"measurement": "enhancement of apoptosis of LPS activated cells", "setting": "[1]", "result": "enhanced apoptosis of LPS activated cells"}]}, {"compound": "arsenic trioxide [ATO]", "values": [{"measurement": "level of apoptosis in tumor (fluorescence)", "setting": "SCK mammary tumors [2]; 3 hours post ATO", "result": "substantial increase in the level of apoptosis; also recorded: high level of apoptosis"}, {"measurement": "level of apoptosis in tumor (fluorescence)", "setting": "SCK mammary tumors [2]; 24 hours post ATO", "result": "even higher; also recorded: higher level of apoptosis"}, {"measurement": "level of hemorrhaging in tumor", "setting": "SCK mammary tumors [3]; 3 hours after completion of treatment, vs placebo control", "result": "Increased levels of hemorrhaging"}, {"measurement": "level of hemorrhaging in tumor", "setting": "SCK mammary tumors [3]; 24 hours after completion of treatment, vs 3 hour photograph", "result": "amount of hemorrhaging has also increased over time"}, {"measurement": "apoptotic cells (apoptosis induction rate)", "setting": "SCK tumor cells; 24 hours after treatment, flow cytometry, 10,000 events, control mouse 18%", "result": 39, "unit": "%"}, {"measurement": "increase in apoptosis versus control mouse", "setting": "SCK tumor cells; 24 hours, flow cytometry", "result": "two-fold increase"}, {"measurement": "level of apoptosis in tumor (fluorescence, 10×)", "setting": "[4]; 8.0 mg/kg ATO IP, 3 hours post ATO, 12.0 μg FAM-VAD-FMK IV, 45 min, same tumor before vs after", "result": "significant level of apoptosis; also recorded: increase in apoptosis within the tumor is clear"}]}, {"compound": "carboxyfluorescein-valanyl-alanyl-aspartyl(O-methyl)-fluoromethyl ketone [FAM-VAD-FMK]", "values": [{"measurement": "in vivo detection of apoptosis in living tissue", "setting": "[4]; IV injection", "result": "works for the in vivo detection of apoptosis"}, {"measurement": "side-effects of the reagent in longitudinal studies", "setting": "[4]; IV injection, repeated in the same animal", "result": "no side-effects"}]}]}
